Reference: ChEMBL document CHEMBL1156691, “Structure of a novel thrombin inhibitor with an uncharged D-amino acid as P1 residue” (Eur J Med Chem, 2008)

Tests used:
Prothrombin [1] = target: T1, Prothrombin (Homo sapiens, UniProt P00734); assay: Inhibition of human thrombin
Prothrombin [2] = target: T1, Prothrombin; assay: Binding affinity to thrombin

For N=C(N)NCCCC[C@@H](NC(=O)[C@@H](Cc1ccc(O)cc1)NC(=O)[C@@H]1CCN1C(=O)[C@H](CC1CCCCC1)NC(=O)[C@H]1CC[C@H](CNC(=N)N)CC1)C(N)=O, the Ki (Prothrombin [1]) was 3 nM.

With NCCc1c[nH]c2cc(F)ccc12 the Kd (Prothrombin [2]) was 6.9 mM.
